The text below walks through data of US20230110128A1, “USE OF ANTIBODY DRUG CONJUGATES COMPRISING TUBULIN DISRUPTING AGENTS TO TREAT SOLID TUMOR” (Seagen Inc., priority 2018, published 2023).

Non-standard residues stand in square brackets, D forms with d. Residues, ends and D or L forms follow the SMILES beside them. *: point of attachment. Dolaproine = CO[C@@H]([C@@H]1CCCN1)[C@@H](C)C(=O)O; Dil = CC[C@H](C)[C@H](NC)[C@@H](CC(=O)O)OC; X1 = C[C@@H](N*)[C@@H](O)c1ccccc1; NMeV = CN[C@H](C(=O)O)C(C)C

The subject of test [1] is A2058, SK-MEL-5, and SK-MEL-28 (skin) cells co-cultured with macrophages. Briefly: Macrophage antigen presentation after co-culture with treated skin tumor cells. The test is classed as cell-based. Particulars: tumor cells treated 24 hours; macrophages harvested 4 days after co-culture; normalized to untreated. As for the experimental part:
Macrophages were enriched from PBMCs from 2 healthy donors by adhering PBMCs to cell culture-grade plastic. Non-adherent cells were removed 24 hours later, leaving a population of cells enriched for macrophages.
A2058, SK-MEL-5, and SK-MEL-28 (skin) cells were treated with MMAE, vincristine, and Paclitaxel for 24 hours. Cells were washed and harvested, and subsequently co-cultured with the enriched macrophages prepared above. Macrophages were harvested 4 days after co-culture and assayed for immune activation by flow cytometry. The level of antigen-presentation (as measured by frequency of MHCII-expressing cells) was quantified and normalized to macrophages that were co-cultured with untreated tumor cells.

Test [2] concerns Hep3b, Huh7, and JHH7 cells co-cultured with macrophages. Nature of the test: Cytokine and chemokine production in macrophage co-culture with treated liver tumor cells. Type of test: cell-based. The conditions noted are these: Huh7, JHH7 co-culture supernatant 24 hours, ELISA, normalized to untreated. As for the experimental part:
Liver tumor lines Hep3b, Huh7, and JHH7 cells were treated with MMAE, Tubulysin M, vincristine, and Paclitaxel for 24 hours and analyzed for ATP secretion. […] Cells were washed and harvested, and subsequently co-cultured with enriched macrophages prepared as above. Macrophages were harvested 4 days after co-culture and assayed for immune activation by flow cytometry. Levels of costimulation (as measured by CD86 expression, JHH7) and antigen-presentation (as measured by frequency of MHCII-expressing cells, Hep3b, Huh7, and JHH7) were quantified and normalized to macrophages that were co-cultured with […]. […] Supernatant from the co-culture of macrophages and dying liver tumor cells was harvested 24 hours later and assayed for levels of cytokine and chemokine production by ELISA and normalized to macrophages that were co-cultured with untreated tumor cells.

A further test has as its system MiaPaca2 cells. Briefly: ATP secretion from MiaPaca2 cells. Type of test: cell-based. The conditions noted are these: supernatant after 16 hours. The procedure:
MiaPaca2 cells were treated with MMAE, Vincristine, or Paclitaxel. Supernatant was collected after 16 hours of treatment, and analyzed for ATP secretion.

Test [3] has as its system A2058, SK-MEL-5, SK-MEL-28, Calu-1, HT-1080, SK-MES-1 and BXPC3 cells. Nature of the test: ATP secretion in a panel of solid tumor cell lines. Type of test: cell-based. Particulars: 7 cell lines, supernatant after 17 hours. The procedure: (§1) Skin tumor lines A2058, SK-MEL-5 and SK-MEL-28, Calu-1 (lung), HT-1080 (fibrosarcoma), SK-MES-1 (lung), and BXPC3 (pancreas) cells were treated with MMAE, vincristine, and Paclitaxel. Supernatant was collected after 17 hours of treatment, and analyzed for ATP secretion.

In another test the test system is MCF7 breast cancer cells. Briefly: Western blot analysis of ER stress response in MCF7 cells. The test is classed as cell-based. The conditions noted are these: 16 hours. The procedure: MCF7 breast cancer cells were treated with 100 nM MMAE for 16 hours and harvested RIPA buffer for western blot analysis.
MCF7 cells were treated with MMAE or an MMAE-containing ADC (SGN-LIV1A) for 16 hours and harvested in […] for western bot analysis. […] Induction of ICD is also characterized by the secretion of ATP and HMGB1. Extracellular ATP serves as a strong chemotactic signal, promoting immune cell migration to the tumor site. Upon arrival, extracellular HMGB1 signals through various pro-inflammatory receptors (TLR2, TLR4, RAGE) to activate antigen-presenting cells, thereby promoting immune activity within the tumor.
Background: A western blot detects proteins with antibodies after separation by electrophoresis.

The test system of test [4] is MiaPaca-CHOP-luciferase cells. Briefly: CHOP-driven luciferase reporter assay of severe ER stress. Particulars: after 16 hours. Type of test: cell-based. The procedure: Severe ER stress leads to upregulation of CHOP, and initiates mitochondrial apoptosis. MiaPaca2 pancreatic tumor cells were engineered to express a CHOP-driven luciferase reporter system (purchased from Signosis, Inc.) that allows for quantifiable monitoring of severe ER stress. MiaPaca-CHOP-luciferase cells were treated with MMAE, vincristine, and Paclitaxel, and assayed for luciferase expression after 16 hours.

The subject of test [5] is T-24 cells co-cultured with macrophages. Nature of the test: Macrophage antigen presentation after co-culture with treated T-24 cells. Type of test: cell-based. Particulars: T-24 treated 24 hours; macrophages harvested 4 days after co-culture. The procedure:
T-24 (bladder) cells were treated with MMAE or an MMAE-containing ADC (ASG-22ME) for 48 hours and analyzed for ATP secretion. […] T-24 cells were also treated with MMAE, an MMAE-containing ADC (ASG22ME, Enfortumab vedotin), vincristine, and Paclitaxel for 24 hours. Cells were washed and harvested, and subsequently co-cultured with the enriched macrophages as above. Macrophages were harvested 4 days after co-culture and assayed for immune activation by flow cytometry. Level of antigen-presentation (as measured by frequency of MHCII-expressing macrophages) was quantified and normalized to macrophages that were co-cultured with untreated tumor cells. […] Supernatant from the co-culture of macrophages and dying T-24 tumor cells was harvested after 24 hours and assayed for levels of cytokine and chemokine production by ELISA and normalized to macrophages that were co-cultured with untreated tumor cells.

For test [6], the system named is Calu-1 cells co-cultured with macrophages. Nature of the test: Cytokine and chemokine production in macrophage co-culture with treated Calu-1 cells. The test is classed as cell-based. The conditions noted are these: Calu-1 co-culture supernatant 24 hours, ELISA, normalized to untreated. As for the experimental part: Supernatant from the co-culture of macrophages and dying tumor cells was harvested 24 hours later and assayed for levels of cytokine and chemokine production by ELISA and normalized to macrophages that were co-cultured with untreated tumor cells as described above.

In test [7] the test system is A2058, SK-MEL-5, SK-MEL-28 (skin) cell lines. Nature of the test: ATP secretion in skin cell lines. Type of test: cell-based. The conditions noted are these: A2058, SK-MEL-5, SK-MEL-28, after 17 hours. The procedure: as §1
For test [8], the system named is MCF7 cells co-cultured with macrophages. Briefly: Cytokine and chemokine production in macrophage co-culture with treated MCF7 cells. The conditions noted are these: MCF7 co-culture supernatant 24 hours, ELISA, normalized to untreated. The test is classed as cell-based. The procedure:
MCF7 […] cells were treated with MMAE, an MMAE-containing ADC (anti-CD71 OKT9-1006), vincristine, and Paclitaxel for 24 hours. Cells were washed and harvested, and subsequently co-cultured with the enriched macrophages prepared above. Macrophages were harvested 4 days after co-culture and assayed for immune activation by flow cytometry. […] Supernatant from the co-culture of macrophages and dying MCF7 cells was harvested 24 hours later and assayed for levels of cytokine and chemokine production by ELISA and normalized to macrophages that were co-cultured with untreated tumor cells.
On the technique in general: ELISA stands for enzyme-linked immunosorbent assay.

A further test has as its system PC-3 cells. Nature of the test: HMGB1 release from PC-3 cells. The test is classed as cell-based. The conditions noted are these: FIG. 3E.
Test [9] concerns MiaPaca-CHOP-luciferase cells subcutaneously engrafted. Nature of the test: Tumoral CHOP luciferase signal in engrafted MiaPaca-CHOP-luciferase tumors. The test is classed as in vivo, NOD/SCID/gamma-chain deficient mice. The conditions noted are these: intratumorally; MMAE 0.36 mg/kg, vincristine 1.0 mg/kg, Paclitaxel 10 mg/kg. The procedure: MiaPaca-CHOP-luciferase cells were subcutaneously engrafted into NOD/SCID/gamma-chain deficient mice. Subcutaneous tumors were treated intratumorally with MMAE (0.36 mg/kg), vincristine (1.0 mg/kg), and Paclitaxel (10 mg/kg) and tumoral luciferase signal was monitored over time.

Turning to `CC[C@H](C)[C@@H]([C@@H](CC(=O)N1CCC[C@H]1[C@H](OC)[C@@H](C)C(=O)N[C@H](C)[C@@H](O)c1ccccc1)OC)N(C)C(=O)[C@@H](NC(=O)[C@@H](NC)C(C)C)C(C)C` [MMAE, monomethyl auristatin E] (H-[NMeV]V[Dil][Dolaproine]-X1), the “Antigen-presentation (frequency of MHCII-expressing cells)” value in [1] is listed as “increase in antigen-presentation in 2/3 tumor cell lines that was more robust than Paclitaxel”. The “Cytokine and chemokine production” value in test [2] was “increase of the indicated cytokines and chemokines that was more robust than treatment with Paclitaxel”; in [6], “increase of the indicated cytokines and chemokines that was more robust than treatment with Paclitaxel”; in [8], “increase of the indicated cytokines and chemokines that was more robust than treatment with Paclitaxel”. Further, the ATP secretion entry with MiaPaca2 cells is “robust ATP secretion”. Also, the “ATP secretion (cell lines responding)” value in test [3] is recorded as “ATP secretion in most of the cell lines assayed (6/7)”. In test [3], the “ATP secretion response compared with Paclitaxel” value was “more robust response than Paclitaxel in all cell lines assayed”. In addition, the “Severe ER stress (JNK signaling by phosphorylated IRE1, expression of CHOP)” value in the test with MCF7 breast cancer cells (western blot) is recorded as “elicited by MMAE”. In addition, in the test with MCF7 breast cancer cells (western blot (100 nM MMAE elsewhere in the source)), the “ER stress response (phosphorylation of IRE1 and eIF2a, cleavage of full-length ATF6)” value is given as “activated all 3 pathways of the ER stress response”. In addition, the “Luciferase signal as a proxy of severe ER stress induction” value in [4] is given as “dose-dependent increase in luciferase signal”. Also, the “Macrophage antigen presentation (frequency of MHCII-expressing macrophages)” value in test [5] is listed as “increase in macrophage antigen presentation that was more robust than treatment with Paclitaxel”. In test [7], the “ATP secretion (skin cell lines responding)” value is recorded as “potent ATP secretion from all 3”. Further, in the test on PC-3 cells, the “Release of HMGB1” value is “release of ATP and HMGB1”. In addition, the “Severe ER stress in engrafted tumors (tumoral luciferase signal over time)” value in test [9] is reported as “rapidly elicited severe ER stress”.
